# Source: PubChem BioAssay AID844 (SRMLSC, 2007)
# pEC50: −log10 of the molar value. Activity calls are given as the source filed them. The rule behind the calls is not given here.
# System: MRP1 cells, doxorubicin viability shift, 10 uM compound
# Assay: doxorubicin EC50 increase in MRP-1 cells, dose response, cell-based, doxorubicin EC50 shift (AID 844)
# Settings: for pEC50: measured here: doxorubicin EC50 with compound
SMILES,fold increase in Dox EC50,pEC50
CCOc1ccccc1Nc1ncnc2c1cnn2-c1ccccc1,0.57 (inactive),5.51
COc1ccc(OCc2nc(C#N)c(N3CCN(c4ccc(OC)cc4)CC3)o2)cc1,0.76 (inactive),5.39
Cc1ccc(NC(=O)CCSc2nnnn2-c2ccc3c(c2)OCO3)cc1C,0.74 (inactive),5.40
CC(C)Cn1c2c(c(O)c(C(=O)Nc3ccc(F)cc3)c1=O)CCCC2,0.95 (inactive),5.29
Cc1ccc(C)c(N2CCN(C(=O)c3ccc4nc(-c5ccco5)c(-c5ccco5)nc4c3)CC2)c1,0.79 (inactive),5.37
O=C(Nc1cccc([N+](=O)[O-])c1)c1[nH]ncc1Cl,0.54 (inactive),5.54
Cc1cc(C(=O)N/N=C/c2cc(Br)ccc2OC(=O)c2ccccc2)n[nH]1,0.15 (inactive),6.09
COc1ccc(C2CC(c3ccccc3)=NN2C(=O)COC(=O)c2cccnc2Cl)cc1 (configuration not stated),0.63 (inactive),5.47
Cn1c(N)c(C(=O)COC(=O)c2cc(C3CC3)nc3ccccc23)c(=O)n(Cc2ccccc2)c1=O,0.94 (inactive),5.29
Cc1ccccc1Cn1nc(C)c(NC(=O)c2noc3c2CCc2ccccc2-3)c1C,1.96,4.98
CCc1nnc(NC(=O)CCC(=O)N2CCN(CCOc3ccc(C)cc3)CC2)s1,1.24 (inactive),5.17
Cc1ccc(CN2C(=O)NC(=O)C3(Cc4c(nc5ccccn5c4=O)N4CCCCCC43)C2=O)cc1 (configuration not stated),1.02 (inactive),5.26
CNc1sc(C(=O)c2cccs2)c(N)c1-c1nc2ccccc2s1,0.56 (inactive),5.52
CCOc1ccc2c(c1)c(N=O)c(O)n2C,0.58 (inactive),5.50
CCc1c(C)sc(NC(=O)c2cccs2)c1C(=O)OC(C)C,0.42 (inactive),5.65
COc1ccc(-c2nnc(SC(C)C(=O)Nc3cccc(Cl)c3)o2)cc1 (configuration not stated),0.74 (inactive),5.40
C=CCOc1ccc(CNc2ccc(NC(=O)CC(C)C)cc2)cc1OC,0.82 (inactive),5.35
Cc1nnc(NC(=O)c2ccccc2Br)s1,1.05 (inactive),5.24
C/C(=N\NC(=O)CCc1c[nH]c2ccccc12)c1cccc([N+](=O)[O-])c1,0.8 (inactive),5.36
O=C(CSc1ncn[nH]1)N1N=C2/C(=C/c3ccco3)CCCC2C1c1ccco1 (configuration not stated),0.4 (inactive),5.66
O=C1CC(c2nc3ccccc3[nH]2)CN1c1cccc(C(F)(F)F)c1 (configuration not stated),1.24 (inactive),5.17
Cc1cc(NC(=O)c2cc(C(C)C)on2)nn1Cc1ccc(Cl)cc1,1.35 (inactive),5.14
O=C(NC(=S)Nc1ccccc1N1CCOCC1)c1ccc(-c2cccc(Cl)c2)o1,0.41 (inactive),5.65
O=C(NCC(F)(F)F)Nc1nnc(C(F)(F)F)s1,1.54,5.08
Cc1nc(OCc2ccccc2)c2sc3nc4c(cc3c2n1)COC(C)(C)C4,1.3 (inactive),5.15
O=C1CCCC(O)=C1N=Nc1ccc2c(c1)OCO2,1.17 (inactive),5.20

SMILES,fold increase in Dox EC50,pEC50
COc1ccc(C(=O)Nc2ccc(S(=O)(=O)Nc3nccnc3OC)cc2)cc1,1.12 (inactive),5.22
CC(C)Oc1ccc(CSC(=N)N)cc1,0.89 (inactive),5.32
CC1(C)Cc2c(sc3nnn(Cc4ccc(Cl)cc4)c(=O)c23)CO1,0.85 (inactive),5.34
N#Cc1c(-c2ccco2)nc(SCC(=O)Nc2cccc(Cl)c2)[nH]c1=O,1.33 (inactive),5.14
CC(OC(=O)c1snc(C(=O)NC2CCCCC2)c1N)C(=O)NC(C)(C)C (configuration not stated),1.1 (inactive),5.23
O=C(NCc1ccccc1)C(c1ccc(O)cc1)N(C(=O)Cn1nnc(-c2cccs2)n1)c1ccc2c(c1)OCCO2 (configuration not stated),0.86 (inactive),5.33
CCCCCCC1CC(CSc2ncn[nH]2)OC1=O (configuration not stated),1.14 (inactive),5.21
CC1CCC(NC(=O)Cn2c3c(c(-c4ccccc4Cl)cc2=O)CCC3)CC1 (configuration not stated),1.13 (inactive),5.21
Fc1ccc(N2CCN(c3ncnc4c3nnn4Cc3ccccc3Cl)CC2)cc1,0.86 (inactive),5.33
COc1cc(NS(=O)(=O)c2ccc(C)cc2)ccc1-n1cnnn1,1.02 (inactive),5.26
COc1ccc(-c2c(C#N)c(N)nc3sc(C(=O)c4ccccc4)c(N)c23)cc1,0.34 (inactive),5.73
CCOC(=O)c1nnc(-c2ccccc2)nc1Oc1ccccc1Cl,0.99 (inactive),5.27
OCCN=C1CCCc2c1[nH]c1ccc(Br)cc21,0.84 (inactive),5.34
Cc1nc(C)c(C(=O)NNS(=O)(=O)c2ccccc2)s1,0.83 (inactive),5.35
O=C(COC(=O)C1CC2C=CC1C2)Nc1ccc2c(c1)OC(F)(F)O2 (configuration not stated),1.21 (inactive),5.18
Cc1ccc(CC2S/C(=C(/C#N)C(=O)N3CCOCC3)N(c3ccccc3)C2=O)cc1 (configuration not stated),1.18 (inactive),5.20
N#Cc1cc2c(nc1SCc1ccc(Cl)cc1)CCCC2,1.07 (inactive),5.24
Cn1nccc1CNC(=O)c1ccnn1C,0.66 (inactive),5.45
COc1ccc(NC(=O)COC(=O)c2c3c(nc4ccccc24)CCCC3)cc1Cl,0.68 (inactive),5.44
Cc1nn(Cc2ccccc2)c(C)c1NC(=O)c1noc2c1CCc1ccccc1-2,0.95 (inactive),5.29
O=C(COc1ccc(Cl)cc1)N1CCN(Cc2ccccc2)CC1,1.38 (inactive),5.13
O=C1NC(=Nc2ccc(Cl)cc2)SC1Cc1cc(Cl)ccc1Cl (configuration not stated),1.09 (inactive),5.23
c1ccc(OCCSc2nc3ccccc3[nH]2)cc1,1.03 (inactive),5.26
O=C(COc1ccc2oc3c(c2c1)CCCC3)Nc1ccccn1,1.27 (inactive),5.16
CN(CC(=O)NCCc1ccc(Cl)cc1)S(=O)(=O)c1ccc2c(c1)c(=O)n(C)c(=O)n2C,0.54 (inactive),5.53
Cc1ccc(S(=O)(=O)Nc2nc3ccccc3nc2NCc2ccc3c(c2)OCO3)cc1C,1.02 (inactive),5.26

SMILES,fold increase in Dox EC50,pEC50
Cc1cccc(-n2c(SCC(=O)Nc3ncc(Cl)cc3Cl)nc3ccccc32)c1,0.81 (inactive),5.36
CC(C)CCOc1ncnc2c1sc1nc3c(cc12)CSC(C)(C)C3,0.51 (inactive),5.56
N#C/C(=N\Nc1ccccc1)C(=N)N1CCOCC1,1.15 (inactive),5.21
CCn1c(COc2ccc(Cl)cc2)nnc1SCc1nc2ccccc2[nH]1,0.35 (inactive),5.73
CCc1ccc(NC(=O)Cn2c(=O)oc3cc(S(=O)(=O)N4CCOCC4)ccc32)cc1,1 (inactive),5.27
O=c1oc(-c2cc3ccccc3o2)nc2sc3c(c12)CCCC3,1.17 (inactive),5.20
Cc1cccc(NC(=O)/C(=C\c2ccc([N+](=O)[O-])o2)NC(=O)c2ccc(Cl)cc2)c1,0.75 (inactive),5.39
C=C(Cl)COc1ccc2c(CCCC)cc(=O)oc2c1,0.81 (inactive),5.36
CC(=O)c1ccc(NC(=O)CCCN2C(=O)/C(=C/C(C)=C/c3ccccc3)SC2=S)cc1,0.19 (inactive),6.00
Cc1ccc(/C=C2\SC(=S)N(CCC(=O)NNS(=O)(=O)c3ccc(C)cc3)C2=O)cc1,0.48 (inactive),5.59
Cn1nnc(NC(=O)COc2ccc(C3CCCCC3)cc2)n1,1.49,5.09
CCCC(=O)c1ccc(N2CCOCC2)c(F)c1,1.07 (inactive),5.24
COc1cccc(/C=N/NC(=O)C(=O)NCc2ccco2)c1O,0.65 (inactive),5.45
N#Cc1c(N)n(CCOC(=O)c2cccc(Br)c2)c2nc3ccccc3nc12,0.93 (inactive),5.30
Cc1ccc(N=Nc2c(N)[nH]n3c(=O)cc(-c4ccccc4)nc23)cc1,0.08 (inactive),6.34
Cc1csc(C(C#N)C(=O)c2cc3ccccc3o2)n1 (configuration not stated),1.19 (inactive),5.19
Cc1onc(-c2ccccc2Cl)c1C(=O)Nc1nnc(-c2ccc(Br)cc2)s1,0.75 (inactive),5.39
CC1CCc2nn(CC(=O)N3CCN(C(=O)c4ccco4)CC3)cc2C1 (configuration not stated),0.66 (inactive),5.45
CC(C)(C)C1CCc2c(sc(NC(=O)c3cccs3)c2C(=O)N2CCCCC2)C1 (configuration not stated),0.96 (inactive),5.28
COC(=O)c1cnn(-c2cc(Oc3ccccc3)ncn2)c1N,0.76 (inactive),5.39
CCCCOC(=O)Nc1ccc(C(C)C)cc1,0.78 (inactive),5.38
CCn1c(COc2ccc(C)cc2)nnc1SCc1nc2ccccc2[nH]1,0.88 (inactive),5.32
O=C1CSC(=S)N1N=C1CCCCCC1,0.92 (inactive),5.30
Cn1c(=O)oc2cc(S(=O)(=O)N3CCCC(C(=O)NCC4COc5ccccc5O4)C3)ccc21 (configuration not stated),0.53 (inactive),5.54
